System: skin (moisture, wrinkle, collagen density)
Experiment: Comparison of different functional components for skin-improving efficacy
Type: in vivo, human
From the text: In addition to the Crassocephalum rabens extract of the present invention, some other commercially available materials were collected, including oral hyaluronic acid (for continuous use of 20 days), ceramide, and collagen (for continuous use of 6 weeks), to compare their effects in maintaining skin hydrated, reducing wrinkles, and increasing collagen.

## ceramide
No duration of use printed
  Moisture (%): +2.7%
  Wrinkle (%): −5.8%

## hyaluronic acid [Oral hyaluronic acid]
Continuous use of 20 days
  Moisture (%): +21.5%
  Wrinkle (%): −12.5%

## collagen
Continuous use of 6 weeks
  Moisture (%): +25.5%
  Wrinkle (%): No significant

Source: patent US20230390183A1, “METHOD FOR IMPROVING SKIN CONDITION BY CRASSOCEPHALUM RABENS EXTRACT” (Greenyn Biotechnology Co., Ltd, priority 2022, published 2023)
